# In patent US20240016784A1, “Y BOX BINDING PROTEIN 1 INHIBITORS” (Oregon Health & Science University, priority 2020, published 2024):
# Experiments:
# Experiment in all cases: NCI-60 cell line panel
# Format in all cases: cell-based
# 786-0 = conditions: Homo sapiens, 48 hours
# Description: (§1) FIG. 17: Assay of SU056 in NCI-60 cell line panel.
# A498 = conditions: Homo sapiens, 48 hours
# Description: as §1
# ACHN = conditions: Homo sapiens, 48 hours
# Description: as §1
# BT-549 = conditions: Homo sapiens, 48 hours
# Description: as §1
# CAKI-1 = conditions: Homo sapiens, 48 hours
# Description: as §1
# CCRF-CEM = conditions: Homo sapiens, 48 hours
# Description: as §1
# EKVX = conditions: Homo sapiens, 48 hours
# Description: as §1
# HCC-2998 = conditions: Homo sapiens, 48 hours
# Description: as §1
# HCT-116 = conditions: Homo sapiens, 48 hours
# Description: as §1
# HCT-15 = conditions: Homo sapiens, 48 hours
# Description: as §1
# HL-60(TB) = conditions: Homo sapiens, 48 hours
# Description: as §1
# HOP-62 = conditions: Homo sapiens, 48 hours
# Description: as §1
# HS 578T = conditions: Homo sapiens, 48 hours
# Description: as §1
# HT29 = conditions: Homo sapiens, HT-29, 48 hours
# Description: as §1
# IGROV1 = conditions: Homo sapiens, IGROV-1, 48 hours
# Description: as §1
# K-562 = conditions: Homo sapiens, K562, 48 hours
# Description: as §1
# KM12 = conditions: Homo sapiens, 48 hours
# Description: as §1
# M14 = conditions: Homo sapiens, 48 hours
# Description: as §1
# MCF7 = conditions: Homo sapiens, 48 hours
# Description: as §1
# MDA-MB-468 = conditions: Homo sapiens, 48 hours
# Description: as §1
# NCI-H226 = conditions: Homo sapiens, 48 hours
# Description: as §1
# NCI-H23 = conditions: Homo sapiens, 48 hours
# Description: as §1
# NCI-H460 = conditions: Homo sapiens, 48 hours
# Description: as §1
# NCI-H522 = conditions: Homo sapiens, 48 hours
# Description: as §1
# OVCAR-4 = conditions: Homo sapiens, 48 hours
# Description: as §1
# OVCAR-5 = conditions: Homo sapiens, 48 hours
# Description: as §1
# OVCAR-8 = conditions: Homo sapiens, 48 hours
# Description: as §1
# PC-3 = conditions: Homo sapiens, 48 hours
# Description: as §1
# RPMI-8226 = conditions: Homo sapiens, 48 hours
# Description: as §1
# RXF 393 = conditions: Homo sapiens, 48 hours
# Description: as §1
# SF-268 = conditions: Homo sapiens, 48 hours
# Description: as §1
# SF-295 = conditions: Homo sapiens, 48 hours
# Description: as §1
# SF-539 = conditions: Homo sapiens, 48 hours
# Description: as §1
# SK-MEL-28 = conditions: Homo sapiens, 48 hours
# Description: as §1
# SK-MEL-2 = conditions: Homo sapiens, 48 hours
# Description: as §1
# SK-MEL-5 = conditions: Homo sapiens, 48 hours
# Description: as §1
# SN12C = conditions: Homo sapiens, 48 hours
# Description: as §1
# SW-620 = conditions: Homo sapiens, 48 hours
# Description: as §1
# T-47D = conditions: Homo sapiens, T47D, 48 hours
# Description: as §1
# TK-10 = conditions: Homo sapiens, 48 hours
# Description: as §1
# U251 = conditions: Homo sapiens, U-251, 48 hours
# Description: as §1
# UACC-257 = conditions: Homo sapiens, 48 hours
# Description: as §1
# UACC-62 = conditions: Homo sapiens, 48 hours
# Description: as §1
# UO-31 = conditions: Homo sapiens, 48 hours
# Description: as §1
smiles,measurement,setting,value
"O=C1OCC2=C1C(c1cccc(F)c1)c1cc3c(cc1N2CCO)OCO3 (centres unmarked) [SU056, 9-(3-fluorophenyl)-5-(2-hydroxyethyl)-6,9-dihydro-[1,3]dioxolo[4,5-g]furo[3,4-b]quinolin-8(5H)-one]",IC50,786-0,1.86 µM
same,IC50,A498,1.11 µM
same,IC50,ACHN,3.03 µM
same,IC50,BT-549,1.46 µM
same,IC50,CAKI-1,1.24 µM
same,IC50,CCRF-CEM,2.37 µM
same,IC50,EKVX,3.03 µM
same,IC50,HCC-2998,7.06 µM
same,IC50,HCT-116,1.53 µM
same,IC50,HCT-15,1.08 µM
same,IC50,HL-60(TB),1.26 µM
same,IC50,HOP-62,2.19 µM
same,IC50,HS 578T,1.42 µM
same,IC50,HT29,1.52 µM
same,IC50,IGROV1,4.19 µM
same,IC50,K-562,0.353 µM
same,IC50,KM12,1.48 µM
same,IC50,M14,0.357 µM
same,IC50,MCF7,1.44 µM
same,IC50,MDA-MB-468,1.12 µM
same,IC50,NCI-H226,50 µM
same,IC50,NCI-H23,3.96 µM
same,IC50,NCI-H460,2.08 µM
same,IC50,NCI-H522,2.59 µM
same,IC50,OVCAR-4,46.8 µM
same,IC50,OVCAR-5,4.33 µM
same,IC50,OVCAR-8,3.18 µM
same,IC50,PC-3,1.46 µM
same,IC50,RPMI-8226,2.28 µM
same,IC50,RXF 393,1.51 µM
same,IC50,SF-268,3.2 µM
same,IC50,SF-295,1.2 µM
same,IC50,SF-539,1.13 µM
same,IC50,SK-MEL-28,20.3 µM
same,IC50,SK-MEL-2,2.46 µM
same,IC50,SK-MEL-5,1.26 µM
same,IC50,SN12C,3.05 µM
same,IC50,SW-620,1.65 µM
same,IC50,T-47D,2.18 µM
same,IC50,TK-10,15.6 µM
same,IC50,U251,2.5 µM
same,IC50,UACC-257,50 µM
same,IC50,UACC-62,2.25 µM
same,IC50,UO-31,2.88 µM
